Read-outs that look alike come from different tables or passages of the source.
How the values were obtained:
[1] = human; filgotinib 200 mg QD; cited from earlier work
[2] = tested on: GM-CSF cytokine receptor (JAK2/JAK2); assay: Human whole blood, GM-CSF-induced pSTAT5, CD14+ cells; format: cell-based
Procedure: Blood was warmed to 37°C prior to use.
(§1) Then, 5 µL of PBS or cytokine was added to each well (5 µL/well; final, 10 U/mL EPO, 100 ng/mL G‐CSF, 10 ng/mL GM‐CSF, 5000 U/mL IFNα, 100 ng/mL IFNγ, 50 ng/mL IL‐2, 50 ng/mL IL‐3, 5 ng/mL IL‐4, 50 ng/mL IL‐6, 30 ng/mL IL‐7, 30 ng/mL IL‐10, 30 ng/mL IL‐12, 30 ng/mL IL‐13, 30 ng/mL IL‐15, 50 ng/mL IL‐21, 25 ng/mL IL‐23, 1000 ng/mL IL‐27) and incubated for 15 minutes. Anti‐cell surface antibodies were added 15 minutes prior to cytokine stimulation; anti‐CD14‐Pacific Blue (0.5 µL/well) to GM‐CSF, IFNγ, and TPO‐treated samples; anti‐CD3‐BV650 (0.5 µL/well) plus anti‐CD14‐Pacific Blue (0.5 µL/well) to IL‐6‐treated samples; and anti‐CD19‐BV421 (0.5 µL/well) plus anti‐CD14‐AF488 (0.5 µL/well) to IL‐13‐treated samples.
(§2) One more wash was done with staining buffer and all samples were finally suspended in 150 µL/well of the desired anti‐pSTAT antibodies at 1:150 dilution in staining buffer; anti‐pSTAT1‐AF647 in IFNγ‐treated samples; anti‐pSTAT1‐AF488 and anti‐pSTAT3‐AF647 in IFNα‐, IL‐6‐, and IL‐27‐treated samples; anti‐pSTAT3‐AF647 in G‐CSF‐, IL‐10‐, IL‐21‐, and IL‐23‐treated samples; anti‐pSTAT4‐AF647 in IL‐12‐treated samples; anti‐pSTAT5‐AF647 in EPO‐, GM‐CSF‐, IL‐2‐, IL‐3‐, IL‐7‐, IL‐15‐, and TPO‐treated samples; anti‐pSTAT5‐AF488 and anti‐pSTAT6‐AF647 in IL‐4‐treated samples; and anti‐pSTAT6‐AF647 in IL‐13‐treated samples.
(§3) The lymphocyte population was gated for pSTAT histogram analysis for IFNα‐, IL‐2‐, IL‐3‐, IL‐4‐, IL‐7‐, IL‐10‐, IL‐12‐, IL‐15‐, IL‐21‐, IL‐23‐, and IL‐27‐treated samples; granulocyte population for G‐CSF‐treated samples; CD14^+ cells for GM‐CSF‐, IFNγ‐, and TPO‐treated samples; CD3^+ cells and CD14^+ cells for IL‐6‐treated samples; CD14^+ cells and CD19^+ cells for IL‐13‐treated samples; all events (entire populations) for EPO‐treated cells. Background fluorescence was defined using unstimulated cells and a gate was placed at the foot of the peak to include ~0.5% gated population.
(§4) Histogram statistical analysis was performed using FACSDiva version 8.0.1 (BD Biosciences). Relative fluorescence unit (RFU), which measures the level of pSTAT, was calculated by multiplying the percent positive population and its mean fluorescence. Data from 11 compound concentrations (singlicate at each concentration) were normalized as a percentage of control, as shown in Equation 1:(1) %ofcontrol=100×A−B/C−B
(§5) A, RFU from wells containing compound and cytokine; B, RFU from wells without cytokine (minimum fluorescence); C, RFU from wells containing only cytokine (maximum fluorescence).
(§6) Inhibition curves and IC50 values were determined using Prism software (Version 7, GraphPad).

[3] = tested on: IFNγ cytokine receptor (JAK1/JAK2); assay: Human whole blood, IFNγ-induced pSTAT1, CD14+ cells; format: cell-based; settings: for IC50: Homo sapiens
Procedure: Blood was warmed to 37°C prior to use.
as §1, §2, §3, §4, §5, §6

[4] = tested on: IL-13 cytokine receptor (JAK1/JAK2, JAK1/TYK2); assay: Human whole blood, IL-13-induced pSTAT6, CD14+ cells; format: cell-based
Procedure: Blood was warmed to 37°C prior to use.
(§7) Anti‐cell surface antibodies were added 15 minutes prior to cytokine stimulation; anti‐CD14‐Pacific Blue (0.5 µL/well) to GM‐CSF, IFNγ, and TPO‐treated samples; anti‐CD3‐BV650 (0.5 µL/well) plus anti‐CD14‐Pacific Blue (0.5 µL/well) to IL‐6‐treated samples; and anti‐CD19‐BV421 (0.5 µL/well) plus anti‐CD14‐AF488 (0.5 µL/well) to IL‐13‐treated samples.
as §3, §4, §5, §6

[5] = tested on: IL-7 cytokine receptor (JAK1/JAK3); assay: Human whole blood, IL-7-induced pSTAT5, lymphocytes; format: cell-based; settings: Lymphocyte
Procedure: Blood was warmed to 37°C prior to use.
as §1, §2, §3, §4, §5, §6

[6] = tested on: IL-6 cytokine receptor (JAK1/JAK2, JAK1/TYK2); assay: Human whole blood, IL-6-induced pSTAT1, CD3+ cells; format: cell-based; settings: for IC50: Homo sapiens
Procedure: Blood was warmed to 37°C prior to use.
as §1, §2, §3, §4, §5, §6

[7] = tested on: IL-6 cytokine receptor (JAK1/JAK2, JAK1/TYK2); assay: Human whole blood, IL-6-induced pSTAT1, CD14+ cells; format: cell-based
Procedure: Blood was warmed to 37°C prior to use.
as §7, §3, §4, §5, §6

[8] = tested on: IL-21 cytokine receptor (JAK1/JAK3); assay: Human whole blood, IL-21-induced pSTAT3, lymphocytes; format: cell-based; settings: Lymphocyte
Procedure: Blood was warmed to 37°C prior to use.
as §1, §2, §3, §4, §5, §6

[9] = tested on: IL-6 cytokine receptor (JAK1/JAK2, JAK1/TYK2); assay: Human whole blood, IL-6-induced pSTAT3, CD3+ cells; format: cell-based
Procedure: Blood was warmed to 37°C prior to use.
as §7, §3, §4, §5, §6

[10] = tested on: IFNα cytokine receptor (JAK1/TYK2); assay: Human whole blood, IFNα-induced pSTAT3, lymphocytes; format: cell-based; settings: Lymphocyte
Procedure: Blood was warmed to 37°C prior to use.
as §1, §2, §3, §4, §5, §6

[11] = tested on: CRP; settings: RA; filgotinib 200 mg QD; cited from earlier work
[12] = unbound, Cav × fu; filgotinib 200 mg QD
[13] = tested on: IL-27 cytokine receptor (JAK1/JAK2, JAK1/TYK2); assay: Human whole blood, IL-27-induced pSTAT3, lymphocytes; format: cell-based; settings: Lymphocyte
Procedure: Blood was warmed to 37°C prior to use.
as §1, §2, §3, §4, §5, §6

[14] = tested on: IFNα cytokine receptor (JAK1/TYK2); assay: Human whole blood, IFNα-induced pSTAT1, lymphocytes; format: cell-based; settings: for IC50: Homo sapiens, Lymphocyte
Procedure: Blood was warmed to 37°C prior to use.
as §1, §2, §3, §4, §5, §6

[15] = tested on: IL-3 cytokine receptor (JAK2/JAK2); assay: Human whole blood, IL-3-induced pSTAT5, lymphocytes; format: cell-based
Procedure: Blood was warmed to 37°C prior to use.
as §1, §2, §3, §4, §5, §6

[16] = in vitro; settings: both, human, pooled human plasma
[17] = tested on: IL-10 cytokine receptor (JAK1/TYK2); assay: Human whole blood, IL-10-induced pSTAT3, lymphocytes; format: cell-based; settings: Lymphocyte
Procedure: Blood was warmed to 37°C prior to use.
as §1, §2, §3, §4, §5, §6

[18] = tested on: IL-4 cytokine receptor (JAK1/JAK3); assay: Human whole blood, IL-4-induced pSTAT6, lymphocytes; format: cell-based; settings: Lymphocyte
Procedure: Blood was warmed to 37°C prior to use.
as §1, §2, §3, §4, §5, §6

[19] = tested on: IL-13 cytokine receptor (JAK1/JAK2, JAK1/TYK2); assay: Human whole blood, IL-13-induced pSTAT6, CD19+ cells; format: cell-based
Procedure: Blood was warmed to 37°C prior to use.
as §7, §3, §4, §5, §6

[20] = tested on: IL-15 cytokine receptor (JAK1/JAK3); assay: Human whole blood, IL-15-induced pSTAT5, lymphocytes; format: cell-based; settings: for IC50: Homo sapiens, Lymphocyte
Procedure: Blood was warmed to 37°C prior to use.
as §1, §2, §3, §4, §5, §6

[21] = tested on: IL-27 cytokine receptor (JAK1/JAK2, JAK1/TYK2); assay: Human whole blood, IL-27-induced pSTAT1, lymphocytes; format: cell-based; settings: Lymphocyte
Procedure: Blood was warmed to 37°C prior to use.
as §7, §3, §4, §5, §6

[22] = tested on: IL-2 cytokine receptor (JAK1/JAK3); assay: Human whole blood, IL-2-induced pSTAT5, lymphocytes; format: cell-based; settings: Lymphocyte
Procedure: Blood was warmed to 37°C prior to use.
as §1, §2, §3, §4, §5, §6

[23] = tested on: TPO cytokine receptor (JAK2/JAK2); assay: Human whole blood, TPO-induced pSTAT5, CD14+ cells; format: cell-based
Procedure: Blood was warmed to 37°C prior to use.
as §1, §2, §3, §4, §5, §6

[24] = tested on: IL-12 cytokine receptor (JAK2/TYK2); assay: Human whole blood, IL-12-induced pSTAT4, lymphocytes; format: cell-based; settings: for IC50: Homo sapiens, Lymphocyte
Procedure: Blood was warmed to 37°C prior to use.
as §1, §2, §3, §4, §5, §6

[25] = tested on: EPO cytokine receptor (JAK2/JAK2); assay: Human whole blood spiked with CD34+-derived erythroid progenitor cells, EPO-induced pSTAT5; format: cell-based; settings: for IC50: Erythroid progenitor cell, human whole blood
Procedure: CD34^+ cells were then harvested, washed once with Dulbecco's (D)‐PBS, and suspended at 0.5 x 10^6 cells/mL in human whole blood to be used in the EPO stimulation assay.
Blood was warmed to 37°C prior to use.
Background fluorescence was defined using unstimulated cells and a gate was placed at the foot of the peak to include ~0.5% gated population.
as §4, §5, §6

[26] = phase 3 RA studies; cited from earlier work

## O=C(Nc1nc2cccc(-c3ccc(CN4CCS(=O)(=O)CC4)cc3)n2n1)C1CC1 [Filgotinib]
[1]
  Cav: 474 nM
[2]; Homo sapiens, read-out: IC50, GM-CSF, pSTAT5
  IC50: > 20 µM
[2]; human whole blood, four donors, mean (SD), CD14+ cells, JAK2/JAK2, GM-CSF 10 ng/mL
  IC50, GM-CSF, pSTAT5: not measurable
[3]
  LogIC50, IFNγ induced pSTAT1, single experiment: -5.17 log[M]
[3]; read-out: IC50, IFNγ induced pSTAT1, single experiment
  IC50: 6.76 µM
[3]; read-out: IC50, IFNγ, pSTAT1
  IC50: 6.95 µM
[3]; read-out: IC50,u, IFNγ, pSTAT1
  IC50: 2.79 µM
[4]; read-out: IC50, IL-13, pSTAT6, CD14+ cells
  IC50: 5.14 µM
[4]; read-out: IC50,u, IL-13, pSTAT6, CD14+ cells
  IC50: 2.06 µM
[5]; read-out: IC50, IL-7, pSTAT5
  IC50: 3.62 µM
[5]; read-out: IC50,u, IL-7, pSTAT5
  IC50: 1.46 µM
[6]
  LogIC50, IL-6 induced pSTAT1 (CD3+ cells), single experiment: -6.12 log[M]
[6]; read-out: IC50, IL-6, pSTAT1, CD3+ cells
  IC50: 0.671 µM
[6]; read-out: IC50, IL-6 induced pSTAT1 (CD3+ cells), single experiment
  IC50: 0.759 µM
[6]; read-out: IC50,u, IL-6, pSTAT1, CD3+ cells
  IC50: 0.27 µM
[7]; read-out: IC50, IL-6, pSTAT1, CD14+ cells
  IC50: 0.81 µM
[7]; read-out: IC50,u, IL-6, pSTAT1, CD14+ cells
  IC50: 0.325 µM
[8]; read-out: IC50, IL-21, pSTAT3
  IC50: 3.98 µM
[8]; read-out: IC50,u, IL-21, pSTAT3
  IC50: 1.6 µM
[9]; read-out: IC50, IL-6, pSTAT3, CD3+ cells
  IC50: 4.94 µM
[9]; read-out: IC50,u, IL-6, pSTAT3, CD3+ cells
  IC50: 1.98 µM
[10]; read-out: IC50, IFNα, pSTAT3
  IC50: 1.06 µM
[10]; read-out: IC50,u, IFNα, pSTAT3
  IC50: 0.425 µM
[11]
  reduction of CRP levels from baseline to week 12: -14.9 mg/L
[12]
  Cav,u: 232.0 nM
[13]; read-out: IC50, IL-27, pSTAT3
  IC50: 1.17 µM
[13]; read-out: IC50,u, IL-27, pSTAT3
  IC50: 0.468 µM
[14]; Figure S1B, Donor 256, Exp 1
  LogIC50, IFNα induced pSTAT1, single experiment: -5.931 log[M]
[14]; read-out: IC50, IFNα induced pSTAT1, single experiment
  IC50: 1.17 µM
[14]; read-out: IC50, IFNα, pSTAT1
  IC50: 1.32 µM
[14]; read-out: IC50,u, IFNα, pSTAT1
  IC50: 0.531 µM
[15]; Homo sapiens, Lymphocyte, read-out: IC50, IL-3, pSTAT5
  IC50: > 20 µM
[15]; human whole blood, four donors, mean (SD), lymphocytes, JAK2/JAK2, IL-3 50 ng/mL
  IC50, IL-3, pSTAT5: not measurable
[16]
  fraction unbound at 6 h, 1 μmol/L: 0.49
[17]; read-out: IC50, IL-10, pSTAT3
  IC50: 2.55 µM
[17]; read-out: IC50,u, IL-10, pSTAT3
  IC50: 1.02 µM
[18]; read-out: IC50, IL-4, pSTAT6
  IC50: 3.62 µM
[18]; read-out: IC50,u, IL-4, pSTAT6
  IC50: 1.46 µM
[19]; read-out: IC50, IL-13, pSTAT6, CD19+ cells
  IC50: 2.12 µM
[19]; read-out: IC50,u, IL-13, pSTAT6, CD19+ cells
  IC50: 0.853 µM
[20]
  LogIC50, IL-15 induced pSTAT5, single experiment: -5.526 log[M]
[20]; read-out: IC50, IL-15, pSTAT5
  IC50: 3.38 µM
[20]; read-out: IC50, IL-15 induced pSTAT5, single experiment
  IC50: 2.98 µM
[20]; read-out: IC50,u, IL-15, pSTAT5
  IC50: 1.36 µM
[21]; read-out: IC50, IL-27, pSTAT1
  IC50: 2.11 µM
[21]; read-out: IC50,u, IL-27, pSTAT1
  IC50: 0.848 µM
[22]; read-out: IC50, IL-2, pSTAT5
  IC50: 2.66 µM
[22]; read-out: IC50,u, IL-2, pSTAT5
  IC50: 1.07 µM
[23]; Homo sapiens, read-out: IC50, TPO, pSTAT5
  IC50: > 17.6 µM
[23]; human whole blood, four donors, mean (SD), CD14+ cells, JAK2/JAK2
  IC50, TPO, pSTAT5: not measurable
[24]
  LogIC50, IL-12 induced pSTAT4, single experiment: -5.125 log[M]
[24]; read-out: IC50, IL-12, pSTAT4
  IC50: 8.03 µM
[24]; read-out: IC50, IL-12 induced pSTAT4, single experiment
  IC50: 7.51 µM
[24]; read-out: IC50,u, IL-12, pSTAT4
  IC50: 3.22 µM
[25]; Figure S1F, Donor 573, Exp 1, one of four experiments, read-out: IC50, EPO induced pSTAT5, single experiment
  IC50: 7.58 µM
[25]; four donors, mean (SD), erythroid progenitor cells, JAK2/JAK2, EPO 10 U/mL, read-out: IC50, EPO, pSTAT5
  IC50: 9.89 µM
[25]; unbound (IC50/blood:plasma ratio × fu), erythroid progenitor cells, JAK2/JAK2, read-out: IC50,u, EPO, pSTAT5
  IC50: 3.97 µM
[25]; Figure S1F, Donor 573, Exp 1
  LogIC50, EPO induced pSTAT5, single experiment: -5.121 log[M]
[26]
  herpes zoster occurrence: reported
